Assay results from US12319672B2, “Alpha-D-galactopyranoside derivatives” (Idorsia Pharmaceuticals Ltd, priority 2019, dated 2025).

What was measured:
human Gal-1 (hGal-1) = test: Competitive binding assay: binding of biotinylated hGal-1 to microplate-adsorbed asialofetuin (ASF); details: Activities on hGal-1; mean values of several measurements
Outline: (§1)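 Spectrophotometric readout (streptavidin-peroxidase, ABTS) of biotinylated galectin retained on ASF-coated wells. Biotinylated hGal-1 or hGal-3, 300-1000 ng/mL, co-incubated with test compound 3 h at 4° C, then washed. Mean IC50 from repeat runs.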

human Gal-3 (hGal-3) = human Gal-3 (hGal-3) (Homo sapiens (Human), UniProt P17931); test: Competitive binding assay: binding of biotinylated hGal-3 to microplate-adsorbed asialofetuin (ASF); details: Activity on hGal-3; mean values of several measurements
Sequence of human Gal-3 (hGal-3) (P17931 whole entry): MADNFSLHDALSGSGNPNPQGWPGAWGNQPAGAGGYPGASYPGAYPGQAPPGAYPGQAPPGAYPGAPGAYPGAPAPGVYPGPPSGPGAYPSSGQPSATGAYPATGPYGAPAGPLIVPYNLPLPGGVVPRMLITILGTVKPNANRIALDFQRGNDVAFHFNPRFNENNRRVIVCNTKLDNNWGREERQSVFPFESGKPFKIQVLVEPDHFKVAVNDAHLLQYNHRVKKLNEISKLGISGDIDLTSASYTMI
Outline: as §1

Sequence of human Gal-1 (hGal-1) (P09382 2-135 limits assumed): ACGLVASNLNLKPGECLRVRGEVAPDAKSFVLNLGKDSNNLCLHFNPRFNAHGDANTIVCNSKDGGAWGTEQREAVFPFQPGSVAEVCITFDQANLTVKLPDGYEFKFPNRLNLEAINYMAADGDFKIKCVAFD

Row | IC50 (human Gal-1 (hGal-1)) | IC50 (human Gal-3 (hGal-3)) | SMILES
1 | 6.48 µM | 0.29 µM | CC(C)(C)OC(=O)N1CCCC(c2cc(C[C@H]3O[C@H](CO)[C@H](O)[C@H](n4cc(-c5cc(F)c(F)c(F)c5)nn4)[C@H]3O)no2)C1 (some centres unmarked) [Ex 1.54]
2 | 1.33 µM | 0.1 µM | CO[C@@H]1[C@@H](n2cc(-c3ccc(F)c(F)c3F)nn2)[C@@H](O)[C@@H](CO)O[C@@H]1Cc1cc(C2CCCC2)on1 [Ex 1.235]
3 | 0.092 µM | 0.026 µM | CCOC(=O)N1CCC(N2CN(C[C@H]3O[C@H](CO)[C@H](O)[C@H](n4cc(-c5cc(F)c(F)c(F)c5)nn4)[C@H]3OC)CC2=O)CC1 [Example 6.11, ethyl 4-(3-(((2R,3R,4S,5R,6R)-5-hydroxy-6-(hydroxymethyl)-3-methoxy-4-(4-(3,4,5-trifluorophenyl)-1H-1,2,3-triazol-1-yl)tetrahydro-2H-pyran-2-yl)methyl)-5-oxoimidazolidin-1-yl)piperidine-1-carboxylate]
4 | 2.46 µM | 0.11 µM | CCN(C)C(=O)N1CCC(c2cc(C[C@H]3O[C@H](CO)[C@H](O)[C@H](n4cc(-c5cc(F)c(F)c(F)c5)nn4)[C@H]3OC)no2)CC1 [Example 3.68, N-ethyl-4-(3-(((2R,3R,4S,5R,6R)-5-hydroxy-6-(hydroxymethyl)-3-methoxy-4-(4-(3,4,5-trifluorophenyl)-1H-1,2,3-triazol-1-yl)tetrahydro-2H-pyran-2-yl)methyl)isoxazol-5-yl)-N-methylpiperidine-1-carboxamide]
5 | 15.8 µM | 1.9 µM | OCc1cc(C[C@H]2O[C@H](CO)[C@H](O)[C@H](n3cc(-c4cc(F)c(F)c(F)c4)nn3)[C@H]2O)no1 [Ex 1.43]
6 | 3.78 µM | 0.026 µM | Cc1ccc(-c2cn([C@H]3[C@@H](O)[C@@H](CO)O[C@H](Cc4cc(C5(C)COC5)no4)[C@@H]3O)nn2)c(F)c1F [Ex 1.335]
7 | 6.8 µM | 0.7 µM | COc1ccc(C2=NOC(C[C@H]3O[C@H](CO)[C@H](O)[C@H](n4cc(-c5cc(F)c(F)c(F)c5)nn4)[C@H]3O)C2)cn1 (some centres unmarked) [Ex 1.23]
8 | 0.74 µM | 0.043 µM | CC(C)(C)OC(=O)N1CCC(c2cc(C[C@H]3O[C@H](CO)[C@H](O)[C@H](n4cc(-c5cc(F)c(F)c(F)c5)nn4)[C@H]3O)no2)CC1 [Ex 1.40]
9 | 11.8 µM | 0.48 µM | CO[C@@H]1[C@@H](n2cc(-c3cc(F)c(F)c(F)c3)nn2)[C@@H](O)[C@@H](CO)O[C@@H]1C[C@H]1CC([C@@H]2CCNC(=O)C2)=NO1 [Ex 1.91]
10 | 1.5 µM | 0.046 µM | CO[C@@H]1[C@@H](n2cc(-c3ccc(C)c(F)c3F)nn2)[C@@H](O)[C@@H](CO)O[C@@H]1Cn1cc(C(C)(C)C)nn1 [Example 4.54, (2R,3R,4S,5R,6R)-6-((4-(tert-butyl)-1H-1,2,3-triazol-1-yl)methyl)-4-(4-(2,3-difluoro-4-methylphenyl)-1H-1,2,3-triazol-1-yl)-2-(hydroxymethyl)-5-methoxytetrahydro-2H-pyran-3-ol]
11 | 4.77 µM | 0.112 µM | CO[C@@H]1[C@@H](n2cc(-c3ccc(C)c(F)c3)nn2)[C@@H](O)[C@@H](CO)O[C@@H]1CC1CC(C2CCN(C(=O)OC(C)(C)C)CC2)=NO1 (some centres unmarked) [Ex 1.136]
12 | 28.4 µM | 1.35 µM | CO[C@@H]1[C@@H](n2cc(-c3cc(F)c(F)c(F)c3)nn2)[C@@H](O)[C@@H](CO)O[C@@H]1Cc1cc(C2(O)CCC(C)(C)CC2)on1 [Ex 1.82]
13 | > 100 µM | 0.046 µM | CCNC(=O)O[C@@H]1[C@@H](n2cc(-c3ccc(C)c(F)c3F)nn2)[C@@H](O)[C@@H](CO)O[C@@H]1Cc1cc(C(C)(C)C)no1 [Example 2.51, (2R,3R,4S,5R,6R)-2-((3-(tert-butyl)isoxazol-5-yl)methyl)-4-(4-(2,3-difluoro-4-methylphenyl)-1H-1,2,3-triazol-1-yl)-5-hydroxy-6-(hydroxymethyl)tetrahydro-2H-pyran-3-yl ethylcarbamate]
14 | 2.51 µM | 0.19 µM | CCC(C)C(=O)N1CCC(c2cc(C[C@H]3O[C@H](CO)[C@H](O)[C@H](n4cc(-c5cc(F)c(F)c(F)c5)nn4)[C@H]3OC)no2)CC1 (mixture of isomers) [Example 3.53, (RS)-1-(4-(3-(((2R,3R,4S,5R,6R)-5-hydroxy-6-(hydroxymethyl)-3-methoxy-4-(4-(3,4,5-trifluorophenyl)-1H-1,2,3-triazol-1-yl)tetrahydro-2H-pyran-2-yl)methyl)isoxazol-5-yl)piperidin-1-yl)-2-methylbutan-1-one]
15 | 6.54 µM | 0.41 µM | OC[C@H]1O[C@H](CC2CC(c3cn[nH]c3)=NO2)[C@H](O)[C@@H](n2cc(-c3cc(F)c(F)c(F)c3)nn2)[C@H]1O (some centres unmarked) [Ex 1.27]
16 | 7.18 µM | 0.48 µM | OC[C@H]1O[C@H](CC2CC(C3CCCCC3)=NO2)[C@H](O)[C@@H](n2cc(-c3cc(F)c(F)c(F)c3)nn2)[C@H]1O (some centres unmarked) [Ex 1.05]

Row | IC50 (human Gal-1 (hGal-1)) | IC50 (human Gal-3 (hGal-3)) | SMILES
17 | 13.3 µM | 4.62 µM | CO[C@@H]1[C@@H](n2cc(-c3cc(F)c(F)c(F)c3)nn2)[C@@H](O)[C@@H](CO)O[C@@H]1Cc1cc(C2(O)CCCN(C(=O)OC(C)(C)C)CC2)on1 (some centres unmarked) [Ex 1.76]
18 | 17.3 µM | 0.041 µM | CC(=O)O[C@@H]1[C@@H](n2cc(-c3ccc(C)c(F)c3F)nn2)[C@@H](O)[C@@H](CO)O[C@@H]1Cc1cc(C(C)(C)C)on1 [Ex 1.204]
19 | 3.61 µM | 1.06 µM | CC(C)(O)CC1CC(C[C@H]2O[C@H](CO)[C@H](O)[C@H](n3cc(-c4cc(F)c(F)c(F)c4)nn3)[C@H]2O)=NO1 (some centres unmarked) [Ex 1.42]
20 | 4.77 µM | 0.15 µM | O=c1[nH]c2ccc(C3=NOC(C[C@H]4O[C@H](CO)[C@H](O)[C@H](n5cc(-c6cc(F)c(F)c(F)c6)nn5)[C@H]4O)C3)cc2o1 (some centres unmarked) [Ex 1.21]
21 | 1 µM | 0.13 µM | CO[C@@H]1[C@@H](n2cc(-c3cc(F)c(F)c(F)c3)nn2)[C@@H](O)[C@@H](CO)O[C@@H]1C[C@H]1CN(C2CCN(C(=O)C(C)C)CC2)C(=O)O1 [Example 5.12, (S)-5-(((2R,3R,4S,5R,6R)-5-hydroxy-6-(hydroxymethyl)-3-methoxy-4-(4-(3,4,5-trifluorophenyl)-1H-1,2,3-triazol-1-yl)tetrahydro-2H-pyran-2-yl)methyl)-3-(1-isobutyrylpiperidin-4-yl)oxazolidin-2-one]
22 | 6.84 µM | 0.32 µM | CC(=O)O[C@@H]1[C@@H](n2cc(-c3cc(F)c(F)c(F)c3)nn2)[C@@H](O)[C@@H](CO)O[C@@H]1CC1CC(C2CCNCC2)=NO1 (mixture of isomers) [Example 3.14, (2R,3R,4S,5R,6R)-5-hydroxy-6-(hydroxymethyl)-2-(((RS)-3-(piperidin-4-yl)-4,5-dihydroisoxazol-5-yl)methyl)-4-(4-(3,4,5-trifluorophenyl)-1H-1,2,3-triazol-1-yl)tetrahydro-2H-pyran-3-yl acetate]
23 | 7.57 µM | 0.28 µM | CO[C@@H]1[C@@H](n2cc(-c3cc(F)c(F)c(F)c3)nn2)[C@@H](O)[C@@H](CO)O[C@@H]1C[C@H]1CN(C2CCN(S(C)(=O)=O)CC2)C(=O)O1 [Example 5.07, (S)-5-(((2R,3R,4S,5R,6R)-5-hydroxy-6-(hydroxymethyl)-3-methoxy-4-(4-(3,4,5-trifluorophenyl)-1H-1,2,3-triazol-1-yl)tetrahydro-2H-pyran-2-yl)methyl)-3-(1-(methylsulfonyl)piperidin-4-yl)oxazolidin-2-one]
24 | 0.98 µM | 0.037 µM | CO[C@@H]1[C@@H](n2cc(-c3ccc(Cl)c(F)c3F)nn2)[C@@H](O)[C@@H](CO)O[C@@H]1Cc1cc(C(C)(C)C)no1 [Ex 1.258]
25 | 2.49 µM | 0.11 µM | CO[C@@H]1[C@@H](n2cc(-c3cc(F)c(F)c(F)c3)nn2)[C@@H](O)[C@@H](CO)O[C@@H]1Cc1cc(C2(C)CCOCC2)on1 [Ex 1.268]
26 | 0.47 µM | 0.084 µM | CCOC(=O)N1CCC(c2cc(C[C@H]3O[C@H](CO)[C@H](O)[C@H](n4cc(-c5ccc(Cl)c(F)c5)nn4)[C@H]3OC)no2)CC1 [Ex 1.149]
27 | 3.92 µM | 0.16 µM | CO[C@@H]1[C@@H](n2cc(-c3cc(F)c(F)c(F)c3)nn2)[C@@H](O)[C@@H](CO)O[C@@H]1Cn1cc(C2CCOCC2)nn1 [Example 4.40, (2R,3R,4S,5R,6R)-2-(hydroxymethyl)-5-methoxy-6-((4-(tetrahydro-2H-pyran-4-yl)-1H-1,2,3-triazol-1-yl)methyl)-4-(4-(3,4,5-trifluorophenyl)-1H-1,2,3-triazol-1-yl)tetrahydro-2H-pyran-3-ol]
28 | 3.03 µM | 1.2 µM | CO[C@@H]1[C@@H](n2cc(-c3cc(F)c(F)c(F)c3)nn2)[C@@H](O)[C@@H](CO)O[C@H]1Cc1cn(C2CCN(C(=O)OC(C)(C)C)CC2)nn1 [Example 4.11, tert-butyl 4-(4-(((2S,3R,4S,5R,6R)-5-hydroxy-6-(hydroxymethyl)-3-methoxy-4-(4-(3,4,5-trifluorophenyl)-1H-1,2,3-triazol-1-yl)tetrahydro-2H-pyran-2-yl)methyl)-1H-1,2,3-triazol-1-yl)piperidine-1-carboxylate]
29 | 1.47 µM | 0.33 µM | CO[C@@H]1[C@@H](n2cc(-c3cc(F)cc(F)c3)nn2)[C@@H](O)[C@@H](CO)O[C@@H]1CC1CC(C2CCN(C(=O)OC(C)(C)C)CC2)=NO1 (some centres unmarked) [Ex 1.118]
30 | 0.74 µM | 0.18 µM | CO[C@@H]1[C@@H](n2cc(-c3ccc(F)c(F)c3F)nn2)[C@@H](O)[C@@H](CO)O[C@@H]1CC1CC(C2CCNCC2)=NO1 (some centres unmarked) [Ex 1.144]
31 | 17 µM | 0.04 µM | CC(=O)O[C@@H]1[C@@H](n2cc(-c3ccc(C)c(F)c3F)nn2)[C@@H](O)[C@@H](CO)O[C@@H]1Cc1cc([C@@H]2CCC[C@H]2O)on1 [Ex 1.344]
